The record followed here is patent US20180148418A1, “AMIDO-SUBSTITUTED CYCLOHEXANE DERIVATIVES” (Bayer Pharma Aktiengesellschaft, priority 2015, published 2018).

Where only a bound is given, the exact number is not on record here.

What is called IC50 is the midpoint of a concentration-inhibition curve. Read a high IC50 as weaker potency.

The target in this test is T1, TNKS1 (Homo sapiens, UniProt O95271).
T1 construct: purchased BPS Bioscience, San Diego, USA 80579 (TNKS1 Histone Ribosylation Assay Kit)
T1 sequence (O95271 1-1327): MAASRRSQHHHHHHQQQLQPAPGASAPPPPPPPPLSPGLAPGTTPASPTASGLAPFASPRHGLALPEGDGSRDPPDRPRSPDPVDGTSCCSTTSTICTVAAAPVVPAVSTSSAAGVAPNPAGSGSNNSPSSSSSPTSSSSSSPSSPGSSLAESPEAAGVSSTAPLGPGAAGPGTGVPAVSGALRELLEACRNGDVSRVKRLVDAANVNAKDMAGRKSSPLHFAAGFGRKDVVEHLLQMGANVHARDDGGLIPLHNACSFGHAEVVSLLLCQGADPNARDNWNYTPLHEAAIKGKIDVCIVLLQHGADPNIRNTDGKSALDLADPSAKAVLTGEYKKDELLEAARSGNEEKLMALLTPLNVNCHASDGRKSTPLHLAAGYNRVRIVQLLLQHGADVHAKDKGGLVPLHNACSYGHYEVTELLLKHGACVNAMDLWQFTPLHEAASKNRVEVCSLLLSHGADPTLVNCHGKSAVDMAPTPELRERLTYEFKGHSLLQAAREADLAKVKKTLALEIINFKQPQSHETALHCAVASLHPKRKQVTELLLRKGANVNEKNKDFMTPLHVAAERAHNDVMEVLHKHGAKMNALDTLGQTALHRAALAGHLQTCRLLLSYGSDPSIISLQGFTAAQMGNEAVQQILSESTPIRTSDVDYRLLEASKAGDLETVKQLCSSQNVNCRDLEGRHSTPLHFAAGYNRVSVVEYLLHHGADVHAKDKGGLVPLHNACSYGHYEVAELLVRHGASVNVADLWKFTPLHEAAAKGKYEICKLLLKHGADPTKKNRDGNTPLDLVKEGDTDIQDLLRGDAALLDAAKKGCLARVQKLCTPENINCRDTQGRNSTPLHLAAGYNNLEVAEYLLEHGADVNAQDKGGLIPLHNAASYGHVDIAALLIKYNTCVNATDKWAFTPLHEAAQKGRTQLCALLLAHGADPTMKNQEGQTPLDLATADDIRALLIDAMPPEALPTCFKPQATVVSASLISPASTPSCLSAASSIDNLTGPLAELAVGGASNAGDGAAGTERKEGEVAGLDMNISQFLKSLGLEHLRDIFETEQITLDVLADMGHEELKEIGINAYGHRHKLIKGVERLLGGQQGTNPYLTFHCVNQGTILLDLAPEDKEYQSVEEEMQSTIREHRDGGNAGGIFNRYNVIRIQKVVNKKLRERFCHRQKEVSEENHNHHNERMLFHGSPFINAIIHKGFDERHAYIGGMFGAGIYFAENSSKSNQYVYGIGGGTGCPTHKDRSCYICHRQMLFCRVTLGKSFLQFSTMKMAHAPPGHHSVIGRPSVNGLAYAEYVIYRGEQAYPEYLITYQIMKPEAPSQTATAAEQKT
Description: TNKS1 Assay B (auto-parsylation, [3H]-NAD+ SPA). It counts as biochemical. The settings on record: 6 nM TNKS1, auto-parsylation, over night at room temperature.
Take `O=C(NCC1CCCO1)c1nc[nH]c1C(=O)N[C@H]1CC[C@H](C(=O)Nc2c(F)cc(F)cc2Cl)CC1` (stereo in doubt) [Example 71, N^5-{trans-4-[(2-chloro-4,6-difluorophenyl)carbamoyl]cyclohexyl}-N^4-[(2R)-tetrahydrofuran-2-ylmethyl]-1H-imidazole-4,5-dicarboxamide]: inhibition was half-maximal at 180 nM (IC50).

In turn, `COC(=O)c1cc(C)nc2c(C(=O)N[C@H]3CC[C@H](C(=O)Nc4c(F)cc(F)cc4Cl)CC3)cnn12` [Example 351, methyl 3-({trans-4-[(2-chloro-4,6-difluorophenyl)carbamoyl]cyclohexyl}carbamoyl)-5-methylpyrazolo[1,5-a]pyrimidine-7-carboxylate] came in with a concentration for half-maximal inhibition (IC50) of 150 nM.

Turning to `Cc1c(C(C)O)cnc2c(C(=O)N[C@H]3CC[C@H](C(=O)Nc4ccc(F)cc4Cl)CC3)cnn12` (stereo partly drawn) [Example 58, N-{trans-4-[(2-chloro-4-fluorophenyl)carbamoyl]cyclohexyl}-6-(1-hydroxyethyl)-7-methylpyrazolo[1,5-a]pyrimidine-3-carboxamide], it took 740 nM to reach half-maximal inhibition (IC50).

`CCNC(=O)c1nc[nH]c1C(=O)N[C@H]1CC[C@@]2(CCN(c3cc(C)c(F)cc3Cl)C2=O)CC1` [Example 289, N^5-[(trans)-2-(2-chloro-4-fluoro-5-methylphenyl)-1-oxo-2-azaspiro[4.5]dec-8-yl]-N^4-ethyl-1H-imidazole-4,5-dicarboxamide] gave a half-inhibitory concentration (IC50) of 8.7 nM.

`Cc1cc(C)n2ncc(C(=O)N[C@H]3CC[C@H](C(=O)Nc4ccc(F)cc4Cl)CC3)c2n1` [Example 44, N-{trans-4-[(2-chloro-4-fluorophenyl)carbamoyl]cyclohexyl}-5,7-dimethylpyrazolo[1,5-a]pyrimidine-3-carboxamide] came in with an IC50 of 48 nM.

`COC[C@@H](C)NC(=O)c1nc[nH]c1C(=O)N[C@H]1CC[C@H](C(=O)Nc2c(F)cc(F)cc2Cl)CC1` [Example 67, N^5-{trans-4-[(2-chloro-4,6-difluorophenyl)carbamoyl]cyclohexyl}-N^4-[(2R)-1-methoxypropan-2-yl]-1H-imidazole-4,5-dicarboxamide] had an IC50 of 250 nM.

Compound `O=C(N[C@H]1CC[C@@]2(CCN(c3cc(F)c(F)cc3Cl)C2=O)CC1)c1cnc2cccnn12` [Example 298, N-[(trans)-2-(2-chloro-4,5-difluorophenyl)-1-oxo-2-azaspiro[4.5]dec-8-yl]imidazo[1,2-b]pyridazine-3-carboxamide] had an IC50 of 6.1 nM.

Regarding `O=C(NC1CCC(F)(C(=O)Nc2ccc(F)cc2Cl)CC1)c1cnn2cccnc12` (single isomer, unassigned) [Example 365, N-{4-[(2-chloro-4-fluorophenyl)carbamoyl]-4-fluorocyclohexyl}pyrazolo[1,5-a]pyrimidine-3-carboxamide (single isomer)], the IC50 is above 10000 nM.

On to `O=C(N[C@H]1CC[C@H](C(=O)Nc2ccc(F)cc2Cl)CC1)c1cnn2cccnc12` [Example 43, N-{trans-4-[(2-chloro-4-fluorophenyl)carbamoyl]cyclohexyl}pyrazolo[1,5-a]pyrimidine-3-carboxamide], for which the 50% inhibitory concentration (IC50) amounted to 81 nM.

The compound `Cc1cc(NC(=O)[C@H]2CC[C@H](NC(=O)c3[nH]cnc3C(=O)NCC3CCCO3)CC2)c(Cl)cc1F` (stereo partly drawn) [Example 64, N^5-{trans-4-[(2-chloro-4-fluoro-5-methylphenyl)carbamoyl]cyclohexyl}-N^4-(tetrahydrofuran-2-ylmethyl)-1H-imidazole-4,5-dicarboxamide] came in with a 50% inhibitory concentration (IC50) of 59 nM.

As to `CNC(=O)c1nc[nH]c1C(=O)N[C@H]1CC[C@H](C(=O)Nc2cc(C)c(F)cc2Cl)CC1` [Example 63, N^5-{trans-4-[(2-chloro-4-fluoro-5-methylphenyl)carbamoyl]cyclohexyl}-N^4-methyl-1H-imidazole-4,5-dicarboxamide], the IC50 stood at 57 nM.

Compound `O=C(NCCC1CC1)c1nc[nH]c1C(=O)N[C@H]1CC[C@H](C(=O)Nc2ccc(F)cc2Cl)CC1` [Example 74, N^5-{trans-4-[(2-chloro-4-fluorophenyl)carbamoyl]cyclohexyl}-N^4-(2-cyclopropylethyl)-1H-imidazole-4,5-dicarboxamide] yielded a 50% inhibitory concentration (IC50) of 84 nM.

`O=C(N[C@H]1CC[C@@]2(CCN(c3cccc(Cl)c3)C2=O)CC1)c1[nH]cnc1C(=O)N1CCOCC1` [Example 286, N-[(trans)-2-(3-chlorophenyl)-1-oxo-2-azaspiro[4.5]dec-8-yl]-4-(morpholin-4-ylcarbonyl)-1H-imidazole-5-carboxamide] gave a half-maximal inhibitory concentration (IC50) of 8600 nM.

The compound `COCC(C)NC(=O)c1nc[nH]c1C(=O)N[C@H]1CC[C@@]2(CCN(c3cccc(Cl)c3)C2=O)CC1` (stereo partly drawn) [Example 285, N^5-[(trans)-2-(3-chlorophenyl)-1-oxo-2-azaspiro[4.5]dec-8-yl]-N^4-(1-methoxypropan-2-yl)-1H-imidazole-4,5-dicarboxamide] registered an IC50 of 630 nM.

For the compound `CNC(=O)c1nc[nH]c1C(=O)N[C@H]1CC[C@H](C(=O)Nc2c(F)cc(F)cc2Br)CC1` [Example 28, N^5-{trans-4-[(6-bromo-2,4-difluorophenyl)carbamoyl]cyclohexyl}-N^4-methyl-1H-imidazole-4,5-dicarboxamide], the IC50 is 68 nM.

For the compound `COC(C)CNC(=O)c1nc[nH]c1C(=O)N[C@H]1CC[C@H](C(=O)Nc2ccc(F)cc2Cl)CC1` (stereo partly drawn) [Example 81, N^5-{trans-4-[(2-chloro-4-fluorophenyl)carbamoyl]cyclohexyl}-N^4-(2-methoxypropyl)-1H-imidazole-4,5-dicarboxamide], inhibition was half-maximal at 100 nM (IC50).

Consider `CNC(=O)c1nc[nH]c1C(=O)N[C@H]1CC[C@@]2(CCN(c3cc(C)c(F)cc3Cl)C2=O)CC1` [Example 288, N^5-[(trans)-2-(2-chloro-4-fluoro-5-methylphenyl)-1-oxo-2-azaspiro[4.5]dec-8-yl]-N^4-methyl-1H-imidazole-4,5-dicarboxamide], for which the half-maximal inhibitory concentration (IC50) was 6.7 nM.

In turn, `O=C(NC[C@@H]1CCCO1)c1nc[nH]c1C(=O)N[C@H]1CC[C@H](C(=O)Nc2ccc(F)cc2Cl)CC1` [Example 79, N^5-{trans-4-[(2-chloro-4-fluorophenyl)carbamoyl]cyclohexyl}-N^4-[(2S)-tetrahydrofuran-2-ylmethyl]-1H-imidazole-4,5-dicarboxamide] yielded a 50% inhibitory concentration (IC50) of 170 nM.

Take `CC(C)(O)CNC(=O)c1nc[nH]c1C(=O)N[C@H]1CC[C@@]2(CCN(c3cccc(Cl)c3)C2=O)CC1` [Example 284, N^5-[(trans)-2-(3-chlorophenyl)-1-oxo-2-azaspiro[4.5]dec-8-yl]-N^4-(2-hydroxy-2-methylpropyl)-1H-imidazole-4,5-dicarboxamide]: the IC50 amounted to 650 nM.

Consider `O=C(N[C@H]1CC[C@H](C(=O)Nc2ccc(F)cc2Cl)CC1)c1cnc2ccc(N3CCCC3)nn12` [Example 51, N-{trans-4-[(2-chloro-4-fluorophenyl)carbamoyl]cyclohexyl}-6-(pyrrolidin-1-yl)imidazo[1,2-b]pyridazine-3-carboxamide], for which inhibition was half-maximal at 83 nM (IC50).

`COC1CN(C(=O)c2nc[nH]c2C(=O)N[C@H]2CC[C@H](C(=O)Nc3ccc(F)cc3Cl)CC2)C1` [Example 24, 4 N-{trans-4-[(2-chloro-4-fluorophenyl)carbamoyl]cyclohexyl}-4-[(3-methoxyazetidin-1-yl)carbonyl]-1H-imidazole-5-carboxamide]: the half-inhibitory concentration (IC50) was found to be 21 nM.

With `CNC(=O)c1[nH]cnc1C(=O)NC1CCC(C(=O)Nc2ccc(F)cc2Cl)CC1C` (single isomer, unassigned) [Example 41, N^4-{4-[(2-chloro-4-fluorophenyl)carbamoyl]-2-methylcyclohexyl}-N^5-methyl-1H-imidazole-4,5-dicarboxamide], the half-maximal inhibitory concentration (IC50) is above 10000 nM.

With `O=C(NC[C@H]1CCCO1)c1nc[nH]c1C(=O)N[C@H]1CC[C@H](C(=O)Nc2ccc(F)cc2Cl)CC1` [Example 80, N^5-{trans-4-[(2-chloro-4-fluorophenyl)carbamoyl]cyclohexyl}-N^4-[(2R)-tetrahydrofuran-2-ylmethyl]-1H-imidazole-4,5-dicarboxamide], half-maximal inhibition (IC50) required 62 nM.
